Measured values as given in article PMC8286840, “Identifying SARS-CoV-2 antiviral compounds by screening for small molecule inhibitors of Nsp3 papain-like protease” (Biochemical Journal, 2021).
Counter-ions that a name gives are not always drawn. Like-named read-outs stand apart in the source and are kept apart here.

Assays:
[1] = molecular target: T1, SARS-CoV-2 PLpro (nsp3 1564–1878) (Severe acute respiratory syndrome coronavirus 2, UniProt P0DTD1); assay: biochemical; parameters: FRET-quenched peptide (Pro3) cleavage by PLpro, 10 min pre-incubation, slope over 20 min, normalised to no-compound control; details: read-out: % of control remaining
[2] = molecular target: T1, SARS-CoV-2 PLpro (nsp3 1564–1878); assay: biochemical; parameters: FRET-quenched peptide (Pro3) cleavage by PLpro, 10 min pre-incubation, slope over 20 min, normalised to no-compound control; details: read-out: % of control remaining; remark: listed apart in the source

## Oc1ccc(/C=C/c2cc(O)cc(O)c2)cc1 [Resveratrol]
[1]; Well no.=1492, low concentration screen
  remaining activity at 1.25 µM: 94.9%
[1]; Well no.=3130, low concentration screen
  remaining activity at 1.25 µM: 101%
[1]; Well no.=3847, low concentration screen
  remaining activity at 1.25 µM: 103%
[2]; Well no.=1492, high concentration screen
  remaining activity at 3.75 µM: 95.7%
[2]; Well no.=3130, high concentration screen
  remaining activity at 3.75 µM: 102%
[2]; Well no.=3847, high concentration screen
  remaining activity at 3.75 µM: 101%

## CO[C@H]1[C@H](OC(=O)c2ccc(C)[nH]2)[C@H](O)[C@@H](Oc2ccc3c(O)c(NC(=O)c4c[nH]c(C(=O)Nc5c(O)c6ccc(O[C@H]7OC(C)(C)[C@@H](OC)[C@H](OC(=O)c8ccc(C)[nH]8)[C@@H]7O)c(C)c6oc5=O)c4C)c(=O)oc3c2C)OC1(C)C [Coumermycin A1]
[1]; Well no.=3175, low concentration screen
  remaining activity at 1.25 µM: 105%
[2]; Well no.=3175, high concentration screen
  remaining activity at 3.75 µM: 104%

## NC(=O)C1CCCc2c1[nH]c1ccc(Cl)cc21 (stereo not drawn) [EX 527]
[1]; Well no.=5287, low concentration screen
  remaining activity at 1.25 µM: 99%
[2]; Well no.=5287, high concentration screen
  remaining activity at 3.75 µM: 97.8%

## C=CC(=O)Nc1ccc2ncnc(Nc3cccc(Br)c3)c2c1 [PD168393]
[1]; Well no.=4750, low concentration screen
  remaining activity at 1.25 µM: 105%
[2]; Well no.=4750, high concentration screen
  remaining activity at 3.75 µM: 104%

## O=NN(CCCl)C(=O)NCCCl [Carmustine]
[1]; Well no.=137, low concentration screen
  remaining activity at 1.25 µM: 102%
[2]; Well no.=137, high concentration screen
  remaining activity at 3.75 µM: 102%

## CCCC[N+]1(C)[C@H]2CC(OC(=O)C(CO)c3ccccc3)C[C@H]1[C@H]1O[C@H]12 (stereo partly drawn) [Scopolamine N-butyl]
[1]; Well no.=2243, low concentration screen
  remaining activity at 1.25 µM: 95%
[2]; Well no.=2243, high concentration screen
  remaining activity at 3.75 µM: 91.9%

## C[C@@H]1Cc2c(Cl)cc(C(=O)N[C@@H](Cc3ccccc3)C(=O)O)c(O)c2C(=O)O1 [Ochratoxin A]
[1]
  remaining activity at 1.25 µM: 92.5%
[2]
  remaining activity at 3.75 µM: 92.8%

## CCCCOc1cc(CC2CNC(=O)N2)ccc1OC (stereo not drawn) [Ro 20-1724]
[1]; Well no.=225, low concentration screen
  remaining activity at 1.25 µM: 102%
[2]; Well no.=225, high concentration screen
  remaining activity at 3.75 µM: 100%

## CCN(CC)C(=O)N[C@@H]1C[C@@H]2c3cccc4[nH]cc(c34)C[C@H]2N(C)C1 [R(+)-Terguride]
[1]; Well no.=1330, low concentration screen
  remaining activity at 1.25 µM: 103%
[2]; Well no.=1330, high concentration screen
  remaining activity at 3.75 µM: 104%

## CC[C@]1(O)C[C@@H]2CN(CCc3c([nH]c4ccccc34)[C@@](C(=O)OC)(c3cc4c(cc3OC)N(C)[C@H]3[C@@](O)(C(=O)OC)[C@H](OC(C)=O)[C@]5(CC)C=CCN6CC[C@]43[C@@H]65)C2)C1 [Vinblastine sulfate salt]
[1]; Well no.=1288, low concentration screen
  remaining activity at 1.25 µM: 111%
[2]; Well no.=1288, high concentration screen
  remaining activity at 3.75 µM: 108%

## CN1[C@@H]2CC(=O)C[C@H]1[C@H](O)C2 [6-Hydroxytropinone]
[1]; Well no.=3639, low concentration screen
  remaining activity at 1.25 µM: 99.8%
[2]; Well no.=3639, high concentration screen
  remaining activity at 3.75 µM: 104%

## Cc1cnc(Nc2ccc(OCCN3CCCC3)cc2)nc1Nc1cccc(S(=O)(=O)NC(C)(C)C)c1 [TG101348]
[1]; Well no.=2853, low concentration screen
  remaining activity at 1.25 µM: 95.4%
[2]; Well no.=2853, high concentration screen
  remaining activity at 3.75 µM: 98.3%

## O=c1c2ccccc2[nH]c(=S)n1CCN1CCC(=C(c2ccc(F)cc2)c2ccc(F)cc2)CC1 [Diacylglycerol Kinase Inhibitor II]
[1]; Well no.=597, low concentration screen
  remaining activity at 1.25 µM: 93.5%
[1]; Well no.=2369, low concentration screen
  remaining activity at 1.25 µM: 98.2%
[2]; Well no.=597, high concentration screen
  remaining activity at 3.75 µM: 95.5%
[2]; Well no.=2369, high concentration screen
  remaining activity at 3.75 µM: 99.1%

## COC(=O)N(C)c1c(N)nc(-c2nn(Cc3ccccc3F)c3ncccc23)nc1N [Riociguat]
[1]; Well no.=6654, low concentration screen
  remaining activity at 1.25 µM: 107%
[2]; Well no.=6654, high concentration screen
  remaining activity at 3.75 µM: 108%

## O=C(Nc1ccc(C(O)(C(F)(F)F)C(F)(F)F)cc1)c1ccc(C(F)(F)F)cc1 [SR1078]
[1]; Well no.=8503, low concentration screen
  remaining activity at 1.25 µM: 107%
[2]; Well no.=8503, high concentration screen
  remaining activity at 3.75 µM: 105%
